# “Also recorded” adds a separate entry of the source.
# Biological target: α-glucosidase (Saccharomyces cerevisiae, UniProt P53341)
# Assay: α-Glucosidase inhibitory activity (p-nitrophenyl-α-glucopyranoside substrate, absorbance at 405 nm)
# Type: biochemical
# Conditions: compared to the positive control acarbose
# Experimental: α-Glucosidase was assayed according to standard procedures. […] Ten microliters of testing materials (in triplicate) were incubated for 10 min with 20 μL of enzyme stock solution and 60 μL of PBS. After incubation, 10 μL of substrate was added and incubated for 20 min at 37 °C. Absorbance at 405 nm was then determined.
# The inhibitory activity of the isolates was determined as a percentage in comparison to a blank (DMSO) according to the following equation: %αGHY=(1−A405t/A405c)×100% where %αGHY is the percentage of inhibition, A405t is the corrected absorbance of the compound under testing (A405end − A405initial), and A405c is the absorbance of the blank (A405endblank − A405initialblank). The IC50 values of compounds were calculated by the nonlinear regression analysis.
# α-glucosidase, sequence (P53341 whole entry): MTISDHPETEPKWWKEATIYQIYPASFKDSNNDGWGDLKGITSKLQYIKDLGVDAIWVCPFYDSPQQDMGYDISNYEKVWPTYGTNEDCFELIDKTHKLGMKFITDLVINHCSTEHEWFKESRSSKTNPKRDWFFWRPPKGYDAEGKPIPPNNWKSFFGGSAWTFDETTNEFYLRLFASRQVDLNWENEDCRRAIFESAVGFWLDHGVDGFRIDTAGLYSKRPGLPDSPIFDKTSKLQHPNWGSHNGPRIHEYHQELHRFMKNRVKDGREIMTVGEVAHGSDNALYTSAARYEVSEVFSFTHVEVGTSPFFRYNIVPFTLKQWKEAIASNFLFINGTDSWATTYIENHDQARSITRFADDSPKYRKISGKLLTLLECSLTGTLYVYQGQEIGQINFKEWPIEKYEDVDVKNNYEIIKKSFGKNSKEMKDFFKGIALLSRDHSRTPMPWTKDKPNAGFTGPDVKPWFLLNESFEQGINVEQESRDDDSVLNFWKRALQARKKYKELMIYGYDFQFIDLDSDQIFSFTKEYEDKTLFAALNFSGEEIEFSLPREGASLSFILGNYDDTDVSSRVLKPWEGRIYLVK
row,SMILES,"α-glucosidase inhibitory activity, result in words"
1,Cc1cc(O)cc(Oc2cc(C)c(O)c(O)c2)c1 [Compound 1],better than that of acarbose
2,Cc1cc(O)cc(Oc2cc(C)c(C(=O)OCC(O)C(O)CO)c(O)c2)c1 (stereo not drawn) [Compound 2],better than that of acarbose
3,C/C(=C\CCC(C)C)c1ccc(Cc2cc(C)cc(O)c2O)cc1O [Compound 3],strong inhibitory activity; also recorded: strong inhibitory effects
4,CC(C)CCCC(C)(O)c1ccc(COCc2ccc(C(C)(O)CCCC(C)C)c(O)c2)cc1O (stereo not drawn) [Compound 5],strong inhibitory activity; also recorded: strong inhibitory effects
5,"Cc1cc(O)cc(Oc2cc(C)cc(OCc3ccc([C@@](C)(O)CCCC(C)C)c(O)c3)c2)c1 [Compound 10, peniciaculin A]",strong inhibitory activity; also recorded: strong inhibitory effects
6,"C/C(=C\CCC(C)C)c1ccc(Cc2c(C)cc(Oc3cc(C)cc(O)c3)cc2O)cc1O [Compound 11, expansol D]",strong inhibitory activity; also recorded: strong inhibitory effects

# Reference: publication PMC6165285, “α-Glucosidase Inhibitors: Diphenyl Ethers and Phenolic Bisabolane Sesquiterpenoids from the Mangrove Endophytic Fungus Aspergillus flavus QQSG-3” (Marine Drugs, 2018)
